Measurements reported in ChEMBL document CHEMBL5728630, “Aryl, heteroaryl, and heterocyclic pharmaceutical compounds for treatment of medical disorders” (2021).

Target: Complement factor D (Homo sapiens, UniProt P00746)
Test: Factor D Assay: Human Factor D (purified from human serum, Complement Technology, Inc.) at 80 nM final concentration is incubated with test compound at various concentrations for 5 min at room temperature in 50 mM Tris, 1M NaCl, pH 7.5. A synthetic substrate Z-L-Lys-SBz and DTNB (Ellman's reagent) are added to final concentrations of 100 μM each. Absorbance at 405 nm (A405) is recorded at 30 second intervals for 30 min using a microplate spectrophotometer. IC50 values are calculated by nonlinear regression of complement Factor D reaction rates as a function of test compound concentration.

Sequence of Complement factor D (P00746 whole entry): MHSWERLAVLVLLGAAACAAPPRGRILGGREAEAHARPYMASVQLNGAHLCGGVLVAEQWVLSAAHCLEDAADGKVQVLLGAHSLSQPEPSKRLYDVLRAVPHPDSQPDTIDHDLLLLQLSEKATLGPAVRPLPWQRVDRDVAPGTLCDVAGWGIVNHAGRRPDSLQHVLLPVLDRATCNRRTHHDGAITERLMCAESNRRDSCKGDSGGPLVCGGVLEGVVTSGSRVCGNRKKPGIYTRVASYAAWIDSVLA

SMILES | IC50 [nM]
CC(=O)c1nn(CC(=O)N2[C@H](C(=O)Nc3nc(Br)ccc3C)C[C@@]3(CC#N)C[C@@H]23)c2cnc(-c3cnc(C)nc3)cc12 | < 1000
COC[C@@]12C[C@@H](C(=O)Nc3nc(Br)ccc3C)N(C(=O)Cn3nc(C(C)=O)c4cc(-c5cnc(C)nc5)ncc43)[C@@H]1C2 | < 1000
CC(=O)c1nn(CC(=O)N2[C@H](C(=O)Nc3cccc(Br)n3)C[C@@]3(C)C[C@@H]23)c2ccc(-c3cnc(O)nc3)cc12 | < 1000
CC(=O)c1nn(CC(=O)N2[C@H](C(=O)Nc3nc(Br)ccc3CCCF)C[C@@]3(C)C[C@@H]23)c2cnc(-c3cnc(C)nc3)cc12 | < 1000
CC(=O)c1cn(CC(=O)N2[C@H](C(=O)Nc3nc(Br)ccc3C)C[C@@]3(C)C[C@@H]23)c2cnc(-c3cnc(C)nc3)cc12 | < 1000
Cc1ncc(-c2ccc3c(c2)c(C(=O)NC(C)(C)C)nn3CC(=O)N2[C@H](C(=O)Nc3nc(Br)ccc3C)C[C@@]3(C)C[C@@H]23)cn1 | > 10000
CCCCCCNC(=O)[C@@H]1C[C@@]2(C)C[C@H]2N1C(=O)Cn1nc(C(C)=O)c2cc(-c3cnc(C)nc3)cc(C)c21 | < 1000
CC(=O)c1nn(CC(=O)N2[C@H](C(=O)Nc3nc(Br)ccc3CN3CCn4c(nnc4C(F)(F)F)C3)C[C@@]3(C)C[C@@H]23)c2cnc(-c3cnc(C)nc3)cc12 | < 1000
Cc1ncc(-c2cc(C)c3c(c2)c(I)nn3CC(=O)N2[C@H](C(=O)Nc3nc(Br)ccc3C)C[C@@]3(C)C[C@@H]23)cn1 | < 1000
CC(=O)c1nn(CC(=O)N2[C@H](C(=O)Nc3nc(Br)ccc3C3COC(=O)O3)C[C@@]3(C)C[C@@H]23)c2cnc(-c3cnc(C)nc3)cc12 (some centres not stated) | < 1000
CC(=O)c1nn(CC(=O)N2[C@H](C(=O)Nc3nc(Br)ccc3CN3CCC(C)(F)CC3)C[C@@]3(C)C[C@@H]23)c2cnc(-c3cnc(C)nc3)cc12 | < 1000
CC(=O)c1nn(CC(=O)N2[C@H](C(=O)NCc3ccccn3)C[C@@]3(C)C[C@@H]23)c2c(C)cc(-c3cnc(C)nc3)cc12 | < 1000
CC(=O)c1nn(CC(=O)N2[C@H](C(=O)Nc3nc(Br)ccc3C)C[C@@]3(C)C[C@@H]23)c2c(C(C)F)cc(-c3cnc(C)nc3)cc12 (some centres not stated) | < 1000
CC(=O)c1nn(CC(=O)N2[C@H](C(=O)NCc3ccccc3)C[C@@]3(C)C[C@@H]23)c2c(C)cc(-c3cnc(C)nc3)cc12 | < 1000
CC(=O)c1nn(CC(=O)N2[C@H](C(=O)NCCC3CCCCC3)C[C@@]3(C)C[C@@H]23)c2c(C)cc(-c3cnc(C)nc3)cc12 | < 1000
CCCCCNC(=O)[C@@H]1C[C@@]2(C)C[C@H]2N1C(=O)Cn1nc(C(C)=O)c2cc(-c3cnc(C)nc3)ccc21 | < 1000
CC(=O)c1nn(CC(=O)N2[C@H](C(=O)Nc3nc(Br)ccc3C3COC(C)(C)O3)C[C@@]3(C)C[C@@H]23)c2cnc(-c3cnc(C)nc3)cc12 (some centres not stated) | < 1000
CC(=O)c1nn(CC(=O)N2[C@H]3C[C@@]3(CF)C[C@H]2C(=O)Nc2nc(Br)ccc2C)c2cnc(-c3cnc(C)nc3)cc12 | < 1000
CCCNC(=O)[C@@H]1C[C@@]2(C)C[C@H]2N1C(=O)Cn1nc(C(C)=O)c2cc(-c3cnc(C)nc3)cc(C)c21 | < 1000
C#CC(C)NC(=O)c1nn(CC(=O)N2[C@H](C(=O)Nc3nc(Br)ccc3C)C[C@@]3(C)C[C@@H]23)c2ccc(-c3cnc(C)nc3)cc12 (some centres not stated) | < 1000
CC(=O)c1nn(CC(=O)N2[C@H](C(=O)Nc3nc(Br)ccc3C)C[C@@]3(C)C[C@@H]23)c2ccc(-c3cnc(C)nc3)cc12 [VEMIRCOPAN] | > 10000

SMILES | IC50 [nM]
CC(=O)c1nn(CC(=O)N2[C@H](C(=O)NCc3ccccc3C)C[C@@]3(C)C[C@@H]23)c2c(C)cc(-c3cnc(C)nc3)cc12 | < 1000
CC(=O)c1nn(CC(=O)N2[C@H](C(=O)Nc3nc(Br)ccc3C)C[C@@]3(CC#N)C[C@@H]23)c2c(C)cc(-c3cnc(C)nc3)cc12 | < 1000
CC(=O)c1nn(CC(=O)N2[C@H](C(=O)NCC(C)(C)C)C[C@@]3(C)C[C@@H]23)c2ccc(-c3cnc(C)nc3)cc12 | < 1000
CC(=O)c1nn(CC(=O)N2[C@H](C(=O)Nc3nc(Br)ccc3C)C[C@@]3(CNC(=O)C(F)(F)F)C[C@@H]23)c2c(C)cc(-c3cnc(C)nc3)cc12 | < 1000
CC(=O)c1nn(CC(=O)N2[C@H](C(=O)NCc3cccnc3)C[C@@]3(C)C[C@@H]23)c2c(C)cc(-c3cnc(C)nc3)cc12 | < 1000
CC(=O)c1nn(CC(=O)N2[C@H](C(=O)Nc3nc(Br)ccc3C)C[C@@]3(C)C[C@@H]23)c2ccc(-c3cnc(O)nc3)cc12 | < 1000
CC(=O)c1nn(CC(=O)N2[C@H](C(=O)N[C@H](C)c3ccccc3)C[C@@]3(C)C[C@@H]23)c2c(C)cc(-c3cnc(C)nc3)cc12 | < 1000
COC(=O)Cc1ccc(Br)nc1NC(=O)[C@@H]1C[C@@H](F)CN1C(=O)Cn1nc(C(C)=O)c2cc(-c3cnc(C)nc3)ccc21 | < 1000
CC(=O)c1nn(CC(=O)N2[C@@H](C(=O)Nc3nc(Br)ccc3C)C[C@@]3(CC(C)C)C[C@@H]23)c2cnc(-c3cnc(C)nc3)cc12 | > 10000
Cc1ncc(-c2cc(C)c3c(c2)c(C2COC2)nn3CC(=O)N2[C@H](C(=O)Nc3nc(Br)ccc3C)C[C@@]3(C)C[C@@H]23)cn1 | < 1000
CC(=O)c1nn(CC(=O)N2[C@H](C(=O)Nc3cccc(-c4ccccc4Cl)c3F)C[C@@]3(C)C[C@@H]23)c2ccc(-c3cnc(C)nc3)cc12 | < 1000
C=C[C@@]12C[C@@H](C(=O)Nc3nc(Br)ccc3Cc3nnc(CCCC)o3)N(C(=O)Cn3nc(C(C)=O)c4cc(-c5cnc(C)nc5)ncc43)[C@@H]1C2 | < 1000
C=CCCc1cc(-c2cnc(C)nc2)cc2c(C(C)=O)nn(CC(=O)N3[C@H](C(=O)Nc4nc(Br)ccc4C)C[C@@]4(COCC=C)C[C@@H]34)c12 | < 1000
Cc1ncc(-c2ccc3c(c2)c(C(=O)NC2CC2)nn3CC(=O)N2[C@H](C(=O)Nc3nc(Br)ccc3C)C[C@@]3(C)C[C@@H]23)cn1 | < 1000
CC(=O)c1nn(CC(=O)N2[C@H](C(=O)Nc3nc(Br)ccc3C)C[C@@]3(CCCF)C[C@@H]23)c2cnc(-c3cnc(C)nc3)cc12 | < 1000
CC(=O)c1nn(CC(=O)N2[C@H](C(=O)NCc3cccc(Cl)c3F)C[C@@]3(C)C[C@@H]23)c2c(C)cc(-c3cnc(C)nc3)cc12 | < 1000
CC(=O)c1nn(CC(=O)N2[C@H](C(=O)Nc3nc(Br)ccc3C)C[C@@]3(CNCC(F)(F)F)C[C@@H]23)c2c(C)cc(-c3cnc(C)nc3)cc12 | < 1000
CC(=O)c1nn(CC(=O)N2[C@H](C(=O)NCc3cncnc3)C[C@@]3(C)C[C@@H]23)c2c(C)cc(-c3cnc(C)nc3)cc12 | < 1000
CC(=O)c1nn(CC(=O)N2[C@H](C(=O)Nc3nc(Br)ccc3CN3CCc4ccccc4C3)C[C@@]3(C)C[C@@H]23)c2cnc(-c3cnc(C)nc3)cc12 | < 1000
CC(=O)c1nn(CC(=O)N2[C@H](C(=O)NCc3cccc(C)c3)C[C@@]3(C)C[C@@H]23)c2c(C)cc(-c3cnc(C)nc3)cc12 | < 1000
CC(=O)c1nn(CC(=O)N2[C@H](C(=O)Nc3nc(Br)ccc3C)C[C@@]3(CF)C[C@@H]23)c2cnc(-c3cnc(C)nc3)cc12 | < 1000

SMILES | IC50 [nM]
CC(=O)c1nn(CC(=O)N2[C@H](C(=O)Nc3nc(OC(F)(F)F)ccc3C)C[C@@]3(C)C[C@@H]23)c2c(C)nc(-c3cnc(C)nc3)cc12 | < 1000
CC(=O)c1nn(CC(=O)N2[C@H](C(=O)Nc3nc(Br)ccc3C)C[C@@]3(C#N)C[C@@H]23)c2cnc(-c3cnc(C)nc3)cc12 | < 1000
Cc1ncc(-c2ccc3c(c2)c(C(N)=O)nn3CC(=O)N2[C@H](C(=O)Nc3nc(Br)ccc3C)C[C@@]3(C)C[C@@H]23)cn1 | < 1000
CC(=O)c1nn(CC(=O)N2[C@H](C(=O)NCc3ccccc3F)C[C@@]3(C)C[C@@H]23)c2c(C)cc(-c3cnc(C)nc3)cc12 | < 1000
CC(=O)c1nn(CC(=O)N2[C@H](C(=O)N[C@H](C)[C@H]3CC3(Cl)Cl)C[C@@]3(C)C[C@@H]23)c2cnc(-c3cnc(C)nc3)cc12 | < 1000
CC(=O)c1nn(CC(=O)N2[C@H](C(=O)Nc3cnc(C)c(Br)n3)C[C@@]3(C)C[C@@H]23)c2c(C)cc(-c3cnc(C)nc3)cc12 | < 1000
CC(=O)c1nn(CC(=O)N2[C@H](C(=O)Nc3nc(Br)ccc3C)C[C@@]3(C)C[C@@H]23)c2cnc(-c3ccc(C)nc3F)cc12 | < 1000
CC(=O)c1nn(CC(=O)N2[C@H](C(=O)Nc3cccc(-c4ccccc4Cl)c3F)C[C@@]3(C)C[C@@H]23)c2c(C)cc(-c3cnc(C)nc3)cc12 | < 1000
CC(=O)c1nn(CC(=O)N2[C@H](C(=O)NCc3ccncc3)C[C@@]3(C)C[C@@H]23)c2c(C)cc(-c3cnc(C)nc3)cc12 | < 1000
CC(=O)c1nn(CC(=O)N2[C@H](C(=O)NCc3cccnn3)C[C@@]3(C)C[C@@H]23)c2c(C)cc(-c3cnc(C)nc3)cc12 | < 1000
CC(=O)c1nn(CC(=O)N2[C@H](C(=O)Nc3cc(F)cc(Br)n3)C[C@@]3(C)C[C@@H]23)c2c(C)nc(-c3cnc(C)nc3)cc12 | < 1000
CC(=O)c1nn(CC(=O)N2[C@H](C(=O)Nc3nc(Br)ccc3C)C[C@@]3(CC(F)F)C[C@@H]23)c2cnc(-c3cnc(C)nc3)cc12 | < 1000
CC(=O)c1nn(CC(=O)N2[C@H](C(=O)Nc3nc(Br)ccc3F)C[C@@]3(C)C[C@@H]23)c2cnc(-c3cnc(C)nc3)cc12 | < 1000
CC(=O)c1nn(CC(=O)N2[C@H](C(=O)Nc3cncc(Br)n3)C[C@@]3(C)C[C@@H]23)c2c(C)nc(-c3cnc(C)nc3)cc12 | < 1000
CC(=O)c1nn(CC(=O)N2[C@H](C(=O)Nc3nc(Br)ccc3C)C[C@@]3(CN4CCCC4)C[C@@H]23)c2c(C)nc(-c3cnc(C)nc3)cc12 | < 1000
CC(=O)c1nn(CC(=O)N2[C@H](C(=O)NCc3ccc(F)cc3)C[C@@]3(C)C[C@@H]23)c2c(C)cc(-c3cnc(C)nc3)cc12 | < 1000
COCc1ccc(Br)nc1NC(=O)[C@@H]1C[C@@]2(C)C[C@H]2N1C(=O)Cn1nc(C(C)=O)c2cc(-c3cnc(C)nc3)cc(COC)c21 | < 1000
CC(=O)c1nn(CC(=O)N2[C@H](C(=O)NCc3ccccc3)C[C@@]3(C)C[C@@H]23)c2ccc(-c3cnc(C)nc3)cc12 | < 1000
COCc1ccc(Br)nc1NC(=O)[C@@H]1C[C@@]2(CNC(C)=O)C[C@H]2N1C(=O)Cn1nc(C(C)=O)c2cc(-c3cnc(C)nc3)ccc21 | < 1000
CC(=O)c1nn(CC(=O)N2[C@H](C(=O)Nc3nc(Br)ccc3C)C[C@@]3(C)C[C@@H]23)c2c(C)cc(-c3cnc(C4(F)COC4)nc3)cc12 | < 1000
